Earlier results, collected in US7563896B2, “Process of obtaining type II dehydroquinase enzyme inhibitors and precursors thereof” (Universidade de Santiago de Compostela, priority 2003, dated 2009).

How the values were obtained:
EPSP synthase = settings: sixth enzyme of the shikimic acid pathway, read-out: inhibition constant

SMILES: O=C(O)CNCP(=O)(O)O [Glyphosphate]
- effectiveness against malaria (malaria): effective
- Ki (EPSP synthase): ~1000 nM
